In publication PMC3585964, “Tissue Inhibitor of Metalloproteinases-3 Peptides Inhibit Angiogenesis and Choroidal Neovascularization in Mice” (PLoS ONE, 2013):

What was measured:
[1] = test system: ERK1 (p44) and ERK2 (p42) in PAE/KDR cells; assay: VEGF-stimulated ERK1/2 (MAP kinase) phosphorylation (western blot); assay type: cell-based, Porcine; settings: 20 µM peptide
Experimental: (§1) Porcine Aortic Endothelial cells expressing VEGFR-2 (PAEKDR) were cultured in Ham’s F-12/DMEM medium supplemented with 10% fetal bovine serum (FBS) (Hyclone), 50 units/ml penicillin and 50 µg/ml streptomycin as described previously. Recombinant human VEGF was a kind gift from Genentech, CA. Antibodies: Anti-Phosphotyrosine clone 4G10 (Upstate Biotechnology/Millipore, Billerica, MA), monoclonal anti-Flk-1 (A-3) (Santa Cruz Biotechnology, Santacruz, CA), MAPK and phospho-specific MAPK antibodies (Calbiochem-Novabiochem Corporation/EMD chemicals, Gibbstown, NJ).
(§2) Immunoprecipitates of cell lysates with the indicated antibodies were subjected to SDS-PAGE and western blot analysis. Proteins were detected with either a HRP-conjugated anti-rabbit or anti-mouse IgG antibody (Amersham Pharmacia Biotech., Piscataway, NJ) followed by ECL. […]
(§3) Figure 3 Effects of TIMP-3 peptides on VEGF signaling in endothelial cells. […] Cell lysates were separated by SDS-PAGE (10%) and analyzed by immunoprecipitation with an anti-KDR anti-body followed by immunoblotting with an anti-phosphotyrosine antibody, 4G10 (top panel). KDR protein was analyzed by immunoprecipitation and immunoblotting of cell lysates using anti-KDR antibody (bottom panel). (b) Densitometric quantitation of 210-kDa bands for phospho- or total mature form of KDR. […]

[2] = test system: VEGFR-1 (Flt-1)/Fc chimera binding to VEGF; assay: Competitive ELISA, binding of sVEGFR-1/Fc to immobilized VEGF; design: species or system human; settings: 50 ng/ml sVEGFR-1 (Flt-1)
Experimental: 96 well EIA/RIA strip plates (COSTAR) were coated with 80 ng/ml recombinant VEGF overnight at 4°C, washed and blocked with blocking buffer (1% BSA and 5% sucrose) overnight at 4°C. Series of dilutions were prepared for recombinant proteins representing WT-TIMP-3, NT2:CT3 and N-T3 in PBS or synthetic peptides corresponding to T3-loop 5, T3-loop 6, T3-N or T3-tail peptides in 0.5 M Tris-HCl (pH 7.5). The diluents were mixed with 50 ng/ml recombinant human VEGFR-2 (KDR/Fc chimera, recombinant human VEGFR-1 (Flt-1)/Fc chimera (R&D Systems, Minneapolis, MN) or control human lgG (Sigma Aldrich, St Louis, MO). The mixtures were then added to the VEGF-coated well in a final volume of 100 µL in PBS and incubated for 2 hours at room temperature. Bound VEGFR-2 was detected by HRP-conjugated anti-human lgG(Fc specific) (1∶1000).

[3] = test system: VEGFR-2 (KDR) in PAE/KDR cells; assay: VEGF-induced VEGFR-2 phosphorylation (immunoprecipitation/western blot); assay type: cell-based, Porcine; settings: 20 µM peptide, 50 ng/ml VEGF
Experimental: as §1, §2, §3

[4] = test system: laser-induced CNV in C57BL/6J mice; assay: Laser-induced choroidal neovascularization (CNV); assay type: in vivo, mouse; settings: intravitreal, immediately after laser burn, 14 days, C57BL6 mice
Experimental: All animal studies were approved by the Animal Care and Use Committee of the Cleveland Clinic (IACUC number ARC-08792) and conformed to the National Institutes of Health Guide for the Care and Use of Animals in Research and the ARVO statement for the use of animals in ophthalmic and vision research. All surgery was performed under ketamine/xylazine anesthesia with maximum effort devoted to minimizing suffering. Laser photocoagulation-induced rupture of Bruch’s membrane was used to generate CNV as previously described. Briefly, 4–5 week old C57BL/6J mice were anesthetized with ketamine hydrochloride (100 mg/kg body weight) and xylazine (10 mg/kg body weight) followed by1% Tropicamide (Alcon laboratories, Inc., Fort Worth, TX) for pupillary dilation. Three burns of 532-nm diode laser photocoagulation (Oculight; Iridex, Mountain View California; 50-µm spot size, 0.1 second duration, 200 mW) were delivered to each retina using a slit lamp delivery system and a hand held coverslip as a contact lens. Burns were performed in the 9, 12 and 3 o’clock positions of the posterior pole of the retina. […] Two weeks later, mice were anesthetized and perfused with fluorescein-labeled dextran (2×10^6 average molecular weight, Sigma Aldrich), choroidal flatmounts were prepared and CNV area measured. […]
Five mice were used for each dose of peptide, with three burns in each eye (n = 15–18 successful burns in each group). For quantitative analysis of lesion intensity and size, CNV images were batch processed using a custom macro generated in Image-Pro Plus 5.1 (Media Cybernetics, Silver Spring, MD). […] Mean intensity (range between 10–255 gray levels), perimeter, area, and mean diameter (pixels) were calculated for each ROI and exported to excel. […]
Figure 7 Inhibition of laser-induced CNV by TIMP-3 peptides. […] Effect of Tail peptides on CNV was evaluated by Fluorescein angiogram and Scanning Laser Ophthalmoscopy (SLO). […] CNV lesion size (area X density) was calculated for each dose of T3N-peptide (Fig. 7g), Loop6-peptide (Fig. 7h) and Tail-peptide (fig. 7i).

PAE/KDR cells = assay: Modified Boyden chamber migration assay; assay type: cell-based, Porcine; settings: peptide up to 20 µM; 50 ng/ml VEGF, 4 h 37°C, mini-Boyden chamber; quadruplicate samples
Experimental: as §1
A modified Boyden chamber assay was performed as described previously. Briefly, 8.0 µm pore PVPF polycarbonate membranes were pre-coated with 100 µg/ml collagen type I in 0.2 N acetic acid (Cohesion technologies, Inc. Palo Alto, California). VEGF at the indicated concentrations was placed in the lower chamber, and cells (2×10^5) in serum-free medium were placed in the upper chambers. […] The number of migrating cells per well was evaluated by light microscopy.
Figure 4 Effects of TIMP-3 peptides on VEGF-mediated EC migration. […] Cells were analyzed for migration towards 50 ng/ml VEGF in the presence or absence of increasing concentrations of loop 6 (a) and tail peptides (b) or 20 µM loop 5 or N-peptide (c), respectively, using a mini-Boyden chamber incubated at 37°C for 4 h.

Sequence | Inhibition of VEGF-stimulated MAP kinase activation [1] | Effect of synthetic peptides on VEGF binding to VEGFR-1 (in words) [2] | Inhibition of VEGF-induced VEGFR-2 activation (phosphorylation) [3] | Inhibition of laser-induced CNV (overall statement) [4] | Inhibition of VEGF-induced migration (PAE/KDR cells) | Inhibition of laser-induced CNV (overall statement) ([4]; listed as N-terminal)
KIKSCYYLPCFVTS [T3-loop 5] | neither loop 5 nor N-peptide, even at higher concentrations (20 µM) inhibited VEGF-stimulated MAP kinase activation | unable to inhibit sVEGFR-1-VEGF complexes | failed to inhibit VEGF-induced receptor activation | no angio-inhibitory activity in vitro or in vivo | failed to inhibit VEGF-induced migration | –
RGFTKMPHVQYIHTEASESL [T3-N peptide] | neither loop 5 nor N-peptide, even at higher concentrations (20 µM) inhibited VEGF-stimulated MAP kinase activation | unable to inhibit sVEGFR-1-VEGF complexes | failed to inhibit VEGF-induced receptor activation | not N-peptide inhibit laser-induced CNV | failed to inhibit VEGF-induced migration | no angio-inhibitory activity in vitro or in vivo
